{"source": "patent US20190350955A1", "about": "“METHODS AND PHARMACEUTICAL COMPOSITIONS FOR THE TREATMENT OF CARDIOMYOPATHIES” (INSERM (Institut National de la Sante et de la Recherche …, priority 2016, published 2019)", "type_in_all_cases": "in vivo, mouse", "key": {"[1]": {"system": "TAC mice", "experiment": "RT-qPCR of Nmrk2, Nmrk1, Nampt mRNA after TAC", "conditions": "6 weeks after surgery, NR 400 mg/kg/day", "method": "Transverse aorta constriction was performed in 2 month-old male mice under anesthesia (ketamine 100 mg/kg, xylazin 16 mg/kg). Skin was opened above the sternum and the upper part of the sternum was cut on a length of 2 mm allowing the mouse to breath without the need of a ventilator. A surgical suture was passed under the aortic cross between the right brachiocephalic (innominate) artery and left common carotid artery and a 27-½ gauge blunt needle was placed parallel to the wall of the aortic cross as a calibrator. Two loose knots were tied around the aortic cross and the needle. The first knot was quickly tied against the needle, followed by the second and the needle was promptly removed in order to produce a constriction of 0.4 mm in diameter. In sham, mice the procedure was the same except for the constriction of the aorta. NR treatment was started 2 days after the TAC or SHAM surgery.\ncDNAs were reverse transcribed from RNA (1.5 μg) extracted in TRIzol (Thermofisher) from cell cultures and tissues using the Superscript II Reverse Transcriptase (Life Technologies). Quantitative PCR was carried out on a Light Cycler 480 (Roche Diagnostics) using Fast Start SYBR Green Master (Roche Diagnostics). Quantification of gene expression was calculated as R=2^ΔCt(Ref Cp−target Cp), with Hprt used as a as reference. Primers were designed using the NCBI Primer-BLAST software. […]"}, "[2]": {"system": "Lmna^H222P/H222P mice", "experiment": "Echocardiography and heart size in treated Lmna H222P/H222P mice", "method": "(§1) Mice were bred in an accredited animal facility (accreditation number: C-75-13-08). All experiments on mice were approved by the Comité d'éthique en expérimentation animate Charles Darwin No 5. Mice Lmna^H222P/H222P were backcrossed 8 times to 129S2/SvPasOrlRj strain mice to obtain pure genetic background. Male mice used for the studies were maintained under a 12 h light/12 h dark cycle at constant temperature (23° C.) with free access to food and water. Nicotinamide riboside (NR) complementation: Animals at 17 weeks of age were fed for 9 weeks with either a chow diet (A04: Scientific Animal Food & Engineering) or a chow diet complemented with 0.25% of NR (kindly provided by ChromaDex, Inc. California) corresponding to a dose of 400 mg/kg/day for a mouse weighing 25 g eating 4 g of food per day. Nicotinamide (NAM) treatment: Animals at 17 weeks of age were injected intraperitoneally (IP) every two days (q.a.d.) for 9 weeks with either physiologic serum or physiologic serum added with NAM at 50 mg/ml corresponding to a dose of 500 mg/kg for a mouse weighing 25 g.\nMouse transthoracic echocardiography was performed using an ACUSON 128XP/10 ultrasound with a 11 Mhz linear probe (Mountain View).MHz transducer applied to the chest wall. Mice were maintained under anesthetized with 0.75% isoflurane anaesthesia (0.75% in O2) and placed on a heating pad (25° C.). Left ventricular (LV) parameters were obtained from M-mode recordings in a modified short axis view. The intra ventricular septum (IVS), LV posterior wall (LVPW), LV diameter (LVD) in diastole and systole, the percentage of fractional shortening (FS) and the heart rate (HR) were measured from the mean of at least three separate cardiac cycles. A “blinded” echocardiographer, unaware of the genotype and the treatment, performed the examinations."}, "[3]": {"system": "Lmna^WT/WT mice", "experiment": "NAD+ content quantification in heart and liver of treated wild type mice", "conditions": "NR diet same dosage (400 mg/kg/day), 9 weeks", "method": "as §1, with “Nicotinamide (NAM) treatment: Animals at 17 weeks of age were injected intraperitoneally (IP) every two days (q.a.d.) for 9 weeks with either physiologic serum or physiologic serum added with NAM at 50 mg/ml corresponding to a dose of 500 mg/kg for a mouse weighing 25 g.” left out\nFresh mouse tissues were homogenized and processed according to previous report (Sander B J, Oelshlegel F J & Brewer G J (1976) Quantitative analysis of pyridine nucleotides in red blood cells: a single-step extraction procedure. Anal. Biochem. 71: 29-36). The concentration of NAD+ in heart tissue was determined using a spectrophotometric assay at 550 nm based on an alcohol dehydrogenase cycling reaction, in which a Methyl Thiazolyl Tetrazolium (MTT) is reduced to Formazan. […]"}, "[4]": {"system": "citrate synthase", "experiment": "Citrate synthase activity in left ventricular myocardium", "conditions": "SRF HKO left ventricular myocardium at D50, NR diet", "method": "SRF^HKO and control (Sf/Sf) mice were administered either rodent maintenance SAFE A04 diet containing 3.10% crude fat. 16.10% crude proteins. 26% starch and 1.9% sugar (Scientific Animal Food Engineering, Paris, France) or SAFE # A04 diet supplemented with NR. NR was provided by Chromadex under brand name NIAGEN (Irvine Calif. USA). The soft pellets were manually prepared every 5 days by mixing 1.65 g of NR into 500 g of powdered SAFE A04 diet and 235 ml of water to reach 2.24 mg of NR/g (wet weight). Control diet was prepared in the same way omitting NR. Mice had ad libitum access to food and water. […]\nFrozen tissue samples were weighed, homogenized (Bertin Precellys 24) in ice-cold buffer (50 mg/ml) containing HEPES 5 mM (pH 8.7), EGTA 1 mM, DTT 1 mM and 0.1% Triton X-100. Citrate synthase (CS), activity was determined in homogenized ventricles as previously described (Kuznetsov et al. (2008). Analysis of mitochondrial function in situ in permeabilized muscle fibers, tissues and cells. Journal 3, 965-976). Activities of enzymes were determined by standard spectrophotometric assays. Briefly, for citrate synthase (CS), approximately 0.5 μg of protein were added in 1 ml of Buffer M (Trizma 100 mM (pH 8), 5,5′-dittiobis-(2-Nitrobenzenoic acid) 0.1 mM, Acetyl-CoA 0.3 mM, oxaloacetatic acid 0.5 mM) and the absorbance at 412 nm was measured during 3 min. […]"}, "[5]": {"conditions": "NR diet 400 mg/kg/day vs chow-diet, echocardiography after 4 and 9 weeks"}}, "data": [{"smiles": "NC(=O)c1ccc[n+]([C@@H]2O[C@H](CO)[C@@H](O)[C@H]2O)c1", "note": "[NR, nicotinamide riboside]", "values": [{"measurement": "Nmrk2, Nmrk1 and Nampt mRNA levels", "setting": "[1]", "value": "no impact"}, {"measurement": "left-ventricular end diastolic diameter (LVDd)", "setting": "[2]; [5]", "value": "significantly decreased"}, {"measurement": "left-ventricular end systolic diameter (LVDs)", "setting": "[2]; [5]", "value": "significantly decreased"}, {"measurement": "left-ventricular fractional shortening (FS)", "setting": "[2]; NR diet 400 mg/kg/day vs chow-diet, starting as early as four weeks of treatment", "value": "increased"}, {"measurement": "overall heart size", "setting": "[2]; NR diet vs chow-diet", "value": "reduced"}, {"measurement": "cellular NAD+ content in liver and heart", "setting": "[3]", "value": "same significant benefit"}, {"measurement": "citrate synthase activity", "setting": "[4]", "value": "protected against the decline"}]}]}
